Data taken from patent US6849664B2, “Process for disposing biocide-containing cooling water” (priority 2001, dated 2005).
Read-outs that look alike come from different tables or passages of the source.

Legend:
bacterial inoculum [1] = conditions: for neutralizing 10 ppm of glutaraldehyde: two moles of nitrogen-containing compound to glutaraldehyde
Method: A series of different nitrogen-containing compounds were evaluated as materials to neutralize glutaraldehyde. For these experiments, 10:1 ratio of minimal media to n-C16 were prepared, mixed with 10 ppm of glutaraldehyde (G) and evaluated in 250 ml flasks.
Two moles of each of the nitrogen-containing compound to glutaraldehyde were added to the flasks. Then 10 μl of the bacterial inoculum was added to each flask.
Control samples were also run with the nitrogen-containing compound and without the glutaraldehyde. These control samples permitted an assessment of the toxicity of the nitrogen-containing compound.

bacterial inoculum [2] = experiment: Neutralization of biocides with MEA, microbial growth in minimal media / Fischer-Tropsch diesel fuel; format: cell-based
Method: Growth Media: A standard minimal media containing only inorganic nutrients required for bacterial growth was used. The medium used to supply inorganic micronutrients to the growing culture of alkane degrading organisms consists of 0.1 g/L MgSO4.7H2O, 0.5 g/L NaNO3, 0.02 mM FeSO4 and 0.63 g/L K2HPO4 and 0.19 g/L KH2PO4 to achieve a pH of 7 to 7.3.
Test Conditions: 90 ml of media and 10 ml of the product to be tested (n-C16) were added to 250 ml flasks. […] After inoculation, the flasks were placed on a shaker-table (135 rpm) at room temperature in contact with air and observed daily.
In all experiments, a 10:1 ratio of minimal media to Fischer-Tropsch diesel fuel were prepared and evaluated in 250 ml flasks.

[3] = test system: Larval Sheepshead Minnow (Cyprinodon variegatus); conditions: in vivo, 96 h
Method: […]. EPA/600/4-90/027F Washington, D.C.) conducted at Pacific Eco-Risk Laboratories, Martinez, Calif.
LOEC is the Lowest Observable Effect Concentration and is defined as the minimum concentration where mortality is observed for the test species. […] LC-50, the concentration that will cause mortality of 50% of the organisms tested within 96 h, is a calculated value based on all observations.

bacteria = experiment: Neutralization of glutaraldehyde with H2O2 and NH4Cl, microbial growth test; format: cell-based
Method: […]. In this experiment, minimal medium, containing 1, 10 or 100 ppm of glutaraldehyde, were mixed with a five times molar excess of H2O2 or NH4Cl. Hydrocarbonaceous product and bacteria were then added to the mixture. While microbial growth was observed after 5 days in control samples containing no glutaraldehyde, no growth was observed after 14 days in samples containing glutaraldehyde and H2O2 or NH4Cl. […].

[4] = 10 ppm glutaraldehyde with two moles of the nitrogen-containing compound to glutaraldehyde, time 0 days
[5] = 10 ppm glutaraldehyde with two moles of the nitrogen-containing compound to glutaraldehyde, time 1 days
[6] = 10 ppm glutaraldehyde with two moles of the nitrogen-containing compound to glutaraldehyde, time 2 days
[7] = 10 ppm glutaraldehyde with two moles of the nitrogen-containing compound to glutaraldehyde, time 6 days
[8] = 10 ppm glutaraldehyde with two moles of the nitrogen-containing compound to glutaraldehyde, time 7 days
[9] = 10 ppm glutaraldehyde with two moles of the nitrogen-containing compound to glutaraldehyde, time 9 days
[10] = 10 ppm glutaraldehyde with two moles of the nitrogen-containing compound to glutaraldehyde, time 13 days
[11] = 10 ppm glutaraldehyde with two moles of the nitrogen-containing compound to glutaraldehyde, time 20 days
[12] = control: nitrogen-containing compound without the glutaraldehyde, time 0 days
[13] = control: nitrogen-containing compound without the glutaraldehyde, time 1 days
[14] = control: nitrogen-containing compound without the glutaraldehyde, time 2 days
[15] = control: nitrogen-containing compound without the glutaraldehyde, time 6 days
[16] = control: nitrogen-containing compound without the glutaraldehyde, time 7 days
[17] = control: nitrogen-containing compound without the glutaraldehyde, time 9 days
[18] = control: nitrogen-containing compound without the glutaraldehyde, time 13 days
[19] = control: nitrogen-containing compound without the glutaraldehyde, time 20 days

**Q.** With `OCCNCCO` [DEA, Diethanolamine] as the molecule, how does the “toxicity of the nitrogen-containing compound to microbial growth” value (bacterial inoculum [1]) read?
**A.** not excessively toxic

**Q.** What about the “Growth / No Growth” value (bacterial inoculum [1]; [4]) of the same molecule?
**A.** −

**Q.** What about the “Growth / No Growth” value (bacterial inoculum [1]; [5]) of the same molecule?
**A.** +

**Q.** What about the “Growth / No Growth” value (bacterial inoculum [1]; [6]) of the same molecule?
**A.** +

**Q.** And the “Growth / No Growth” value (bacterial inoculum [1]; [7])?
**A.** +

**Q.** What about the “Growth / No Growth” value (bacterial inoculum [1]; [8]) of the same molecule?
**A.** +

**Q.** What about the “Growth / No Growth” value (bacterial inoculum [1]; [9]) of the same molecule?
**A.** +

**Q.** What about the “Growth / No Growth” value (bacterial inoculum [1]; [10]) of the same molecule?
**A.** +

**Q.** What about the “Growth / No Growth” value (bacterial inoculum [1]; [11]) of the same molecule?
**A.** +

**Q.** What about the “Growth / No Growth” value (bacterial inoculum [1]; [12]) of the same molecule?
**A.** −

**Q.** What about the “Growth / No Growth” value (bacterial inoculum [1]; [13]) of the same molecule?
**A.** −

**Q.** What about the “Growth / No Growth” value (bacterial inoculum [1]; [14]) of the same molecule?
**A.** −

**Q.** And the “Growth / No Growth” value (bacterial inoculum [1]; [15])?
**A.** +

**Q.** What about the “Growth / No Growth” value (bacterial inoculum [1]; [16]) of the same molecule?
**A.** +

**Q.** What about the “Growth / No Growth” value (bacterial inoculum [1]; [17]) of the same molecule?
**A.** +

**Q.** And the “Growth / No Growth” value (bacterial inoculum [1]; [18])?
**A.** +

**Q.** What about the “Growth / No Growth” value (bacterial inoculum [1]; [19]) of the same molecule?
**A.** −

**Q.** What about the “neutralizing 10 ppm of glutaraldehyde” value (bacterial inoculum [1]) of the same molecule?
**A.** effective

**Q.** Which “Growth / No Growth” value (bacterial inoculum [2]; 1 ppm G, time 0 days) does the source give for `O=CCCCC=O` [Glutaraldehyde, glutaraldehyde] here?
**A.** −

**Q.** And the “Growth / No Growth” value (bacterial inoculum [2]; 1 ppm G, time 1 days)?
**A.** −

**Q.** What about the “Growth / No Growth” value (bacterial inoculum [2]; 1 ppm G, time 2 days) of the same molecule?
**A.** −

**Q.** And the “Growth / No Growth” value (bacterial inoculum [2]; 1 ppm G, time 3 days)?
**A.** −

**Q.** What about the “Growth / No Growth” value (bacterial inoculum [2]; 1 ppm G, time 7 days) of the same molecule?
**A.** −

**Q.** And the “Growth / No Growth” value (bacterial inoculum [2]; 1 ppm G, time 9 days)?
**A.** +

**Q.** And the “Growth / No Growth” value (bacterial inoculum [2]; 1 ppm G, time 14 days)?
**A.** +

**Q.** What about the “Growth / No Growth” value (bacterial inoculum [2]; 10 ppm G, time 0 days) of the same molecule?
**A.** −

**Q.** What about the “Growth / No Growth” value (bacterial inoculum [2]; 10 ppm G, time 1 days) of the same molecule?
**A.** −

**Q.** What about the “Growth / No Growth” value (bacterial inoculum [2]; 10 ppm G, time 2 days) of the same molecule?
**A.** −

**Q.** What about the “Growth / No Growth” value (bacterial inoculum [2]; 10 ppm G, time 3 days) of the same molecule?
**A.** −

**Q.** And the “Growth / No Growth” value (bacterial inoculum [2]; 10 ppm G, time 7 days)?
**A.** −

**Q.** And the “Growth / No Growth” value (bacterial inoculum [2]; 10 ppm G, time 9 days)?
**A.** −

**Q.** What about the “Growth / No Growth” value (bacterial inoculum [2]; 10 ppm G, time 14 days) of the same molecule?
**A.** −

**Q.** And the “Growth / No Growth” value (bacterial inoculum [2]; 100 ppm G, time 0 days)?
**A.** −

**Q.** What about the “Growth / No Growth” value (bacterial inoculum [2]; 100 ppm G, time 1 days) of the same molecule?
**A.** −

**Q.** What about the “Growth / No Growth” value (bacterial inoculum [2]; 100 ppm G, time 2 days) of the same molecule?
**A.** −

**Q.** What about the “Growth / No Growth” value (bacterial inoculum [2]; 100 ppm G, time 3 days) of the same molecule?
**A.** −

**Q.** What about the “Growth / No Growth” value (bacterial inoculum [2]; 100 ppm G, time 7 days) of the same molecule?
**A.** −

**Q.** And the “Growth / No Growth” value (bacterial inoculum [2]; 100 ppm G, time 9 days)?
**A.** −

**Q.** What about the “Growth / No Growth” value (bacterial inoculum [2]; 100 ppm G, time 14 days) of the same molecule?
**A.** −

**Q.** And the LOEC [3]?
**A.** 25 mg/L

**Q.** What about the NOEC [3] of the same molecule?
**A.** 13 mg/L

**Q.** For `Cl.N` [NH4Cl], which microbial growth (bacteria) is on record?
**A.** no growth

**Q.** Which results are given for `NCCO` [MEA, monoethanolamine]?
**A.** toxicity of the nitrogen-containing compound to microbial growth (bacterial inoculum [1]): not excessively toxic; Growth / No Growth (bacterial inoculum [1]; [4]): −; Growth / No Growth (bacterial inoculum [1]; [5]): −; Growth / No Growth (bacterial inoculum [1]; [6]): −; Growth / No Growth (bacterial inoculum [1]; [7]): +; Growth / No Growth (bacterial inoculum [1]; [8]): +; Growth / No Growth (bacterial inoculum [1]; [9]): +; Growth / No Growth (bacterial inoculum [1]; [10]): +; Growth / No Growth (bacterial inoculum [1]; [11]): +; Growth / No Growth (bacterial inoculum [1]; [12]): −; Growth / No Growth (bacterial inoculum [1]; [13]): −; Growth / No Growth (bacterial inoculum [1]; [14]): −; Growth / No Growth (bacterial inoculum [1]; [15]): −; Growth / No Growth (bacterial inoculum [1]; [16]): +; Growth / No Growth (bacterial inoculum [1]; [17]): +; Growth / No Growth (bacterial inoculum [1]; [18]): +; Growth / No Growth (bacterial inoculum [1]; [19]): +; neutralizing 10 ppm of glutaraldehyde (bacterial inoculum [1]): effective; LOEC [3]: 1700 mg/L; NOEC [3]: 1000 mg/L

**Q.** What does the source list for `Nc1ccccc1` [aniline, Aniline]?
**A.** toxicity of the nitrogen-containing compound to microbial growth (bacterial inoculum [1]): excessively toxic; Growth / No Growth (bacterial inoculum [1]; [4]): −; Growth / No Growth (bacterial inoculum [1]; [5]): −; Growth / No Growth (bacterial inoculum [1]; [6]): −; Growth / No Growth (bacterial inoculum [1]; [7]): −; Growth / No Growth (bacterial inoculum [1]; [8]): −; Growth / No Growth (bacterial inoculum [1]; [9]): −; Growth / No Growth (bacterial inoculum [1]; [10]): −; Growth / No Growth (bacterial inoculum [1]; [11]): −; Growth / No Growth (bacterial inoculum [1]; [12]): −; Growth / No Growth (bacterial inoculum [1]; [13]): −; Growth / No Growth (bacterial inoculum [1]; [14]): −; Growth / No Growth (bacterial inoculum [1]; [15]): −; Growth / No Growth (bacterial inoculum [1]; [16]): −; Growth / No Growth (bacterial inoculum [1]; [17]): −; Growth / No Growth (bacterial inoculum [1]; [18]): −; Growth / No Growth (bacterial inoculum [1]; [19]): −

**Q.** With `CCNCC` [diethylamine, Diethylamine] as the molecule, how does the “toxicity of the nitrogen-containing compound to microbial growth” value (bacterial inoculum [1]) read?
**A.** not excessively toxic

**Q.** And the “Growth / No Growth” value (bacterial inoculum [1]; [4])?
**A.** −

**Q.** And the “Growth / No Growth” value (bacterial inoculum [1]; [5])?
**A.** −

**Q.** And the “Growth / No Growth” value (bacterial inoculum [1]; [6])?
**A.** −

**Q.** What about the “Growth / No Growth” value (bacterial inoculum [1]; [7]) of the same molecule?
**A.** +

**Q.** And the “Growth / No Growth” value (bacterial inoculum [1]; [8])?
**A.** +

**Q.** What about the “Growth / No Growth” value (bacterial inoculum [1]; [9]) of the same molecule?
**A.** +

**Q.** And the “Growth / No Growth” value (bacterial inoculum [1]; [10])?
**A.** +

**Q.** And the “Growth / No Growth” value (bacterial inoculum [1]; [11])?
**A.** +

**Q.** What about the “Growth / No Growth” value (bacterial inoculum [1]; [12]) of the same molecule?
**A.** −

**Q.** And the “Growth / No Growth” value (bacterial inoculum [1]; [13])?
**A.** −

**Q.** What about the “Growth / No Growth” value (bacterial inoculum [1]; [14]) of the same molecule?
**A.** −

**Q.** And the “Growth / No Growth” value (bacterial inoculum [1]; [15])?
**A.** +

**Q.** What about the “Growth / No Growth” value (bacterial inoculum [1]; [16]) of the same molecule?
**A.** +

**Q.** And the “Growth / No Growth” value (bacterial inoculum [1]; [17])?
**A.** +

**Q.** And the “Growth / No Growth” value (bacterial inoculum [1]; [18])?
**A.** +

**Q.** What about the “Growth / No Growth” value (bacterial inoculum [1]; [19]) of the same molecule?
**A.** +

**Q.** And the “neutralizing 10 ppm of glutaraldehyde” value (bacterial inoculum [1])?
**A.** effective

**Q.** With `OO` [H2O2] as the molecule, how does the microbial growth (bacteria) read?
**A.** no growth
